Residues, ends and D or L forms follow the SMILES beside them. *: point of attachment. Cbz = O=C(OCc1ccccc1)*; CH2F = FC*
Key:
Assay type in all cases: cell-based, human
786-O cells [1] = test: Analysis of apoptosis (sub-G1 fraction, flow cytometry); conditions: for effect of combined use with OBP-801 (summary statement): PI3K inhibitor used in combination with OBP-801, all five tested in 786-O cells; for induction of apoptosis (sub-G1), treatment alone: 48 hours and 72 hours
Description: (§1) Cells were treated for 24 hours, 48 hours, or 72 hours at respective concentrations with or without addition of OBP-801 and/or with addition of LY294002, BKM120, GDC-0941, BEZ235, BYL719, or CH5132799, following which cells were harvested. The cells were permeabilized with 0.1% Triton-X100, following which the nuclei were stained with propidium iodide (PI). DNA content was measured using a FACSCalibur™ flow cytometer (Becton-Dickinson, Franklin Lakes, N.J., USA), and was analyzed with ModFit LT™ (Verity Software House, Topsham, Me., USA) and the Cell Quest™ software package (Becton-Dickinson).

HEC-1-A cells [2] = test: Colony formation assay
Description: Cells were seeded at a density of 200 cells per well in 6-well plates. After culturing these for 24 hours, treatment was carried out for 48 hours at respective concentrations with or without addition of OBP-801 and/or with addition of LY294002. These were then cultured in growth medium for 10 days, and the number of viable colonies was counted.

[3] = test system: caspase-3, caspase-8 and caspase-9; test: Western blot analysis of caspase-3, caspase-8 and caspase-9 cleavage in 786-O cells
Description: (§2) Cells were lysed with lysis solution (50 mM Tris-HCl, 1% SDS, 2 μg/mL leupeptin, 2 μg/mL aprotinin, 0.1% 2-mercaptoethanol, and 1 mM phenylmethyl sulfonyl fluoride). Protein extract was loaded onto a polyacrylamide gel, subjected to electrophoresis, and transferred to a nitrocellulose membrane. Blots were blocked in blocking solution (5% skim milk/TBST) for 1 hour at room temperature, and incubated with appropriate primary antibody for 1 hour at room temperature. Signal was detected with an ECL™ Western Blot Analysis System (GE Healthcare, Piscataway, N.J., USA) or a Chemi-Lumi One chemiluminescent detection kit (Nacalai Tesque, Inc., Japan). […]

HEC-1-A cells [4] = test: Analysis of cell cycle and apoptosis (sub-G1 fraction, flow cytometry) with combination index; conditions: for effect on tumor cell cycle progression: used alone, OBP-801 4 nM, LY294002 12.5 μM, 24 hours to 72 hours
Description: as §1
Combination index (CI) was calculated using CalcuSyn software (Biosoft, UK) based on the method of Chou and Talalay. When CI<1, it is determined that the effect is synergistic; i.e., greater than the expected additive effect. When CI=1, it is determined that the effect is additive; when CI>1, it is determined that the effect is antagonistic.

phosphorylated Akt = test: Western blot analysis of phosphorylated Akt in HEC-1-A cells
Description: as §2

HEC-1-A cells [5] = test: Cell viability testing (Cell Counting Kit-8), cell growth inhibition
Description: (§3) HEC-1-A cells derived from the human type 2 endometrial carcinoma cell line were cultured under conditions of 37° C. and 5% CO2 in RPMI medium to which 10% FBS had been added. Ishikawa human endometrial carcinoma cells were cultured under conditions of 37° C. and 5% CO2 in DMEM medium to which 10% FBS had been added. Human renal cell carcinoma cell line 786-O cells were cultured under conditions of 37° C. and 5% CO2 in RPMI 1640 medium to which 10% FBS, 2 mM glutamine, 100 U/mL penicillin, and 100 μg/mL streptomycin had been added. Human renal cell carcinoma cell line ACHN cells were cultured under conditions of 37° C. and 5% CO2 in DMEM medium to which 10% FBS, 4 mM glutamine, 100 U/mL penicillin, and 100 μg/mL streptomycin had been added. Human lymphoma cell line SU-DHL-6 cells were cultured under conditions of 37° C. and 5% CO2 in RPMI 1640 medium to which 10% FBS, 2 mM glutamine, 100 U/mL penicillin, and 100 μg/mL streptomycin had been added. Human breast cancer cell line MDA-MB-231 cells were cultured under conditions of 37° C. and 5% CO2 in RPMI 1640 medium to which 10% FBS, 2 mM glutamine, 100 U/mL penicillin, and 100 μg/mL streptomycin had been added.
(§4) Cell viability was determined by carrying out measurements at a wavelength of 450 nm with a Viento multi-well spectrophotometer (DS Pharma Biomedical, Japan) using a Cell Counting Kit-8 (Dojindo Laboratories, Japan).

ACHN cells = test: Cell viability testing, cell growth inhibition; conditions: used alone
Description: as §3, §4

786-O cells [6] = test: Cell viability testing, cell growth inhibition; conditions: used alone
Description: as §3, §4

Ishikawa cells = test: Cell viability testing, cell growth inhibition; conditions: used alone
Description: as §3, §4

caspases, Bim = test: Western blot analysis of caspase cleavage and Bim in HEC-1-A cells; conditions: OBP-801 and LY294002 plus NAC
Description: as §2

HEC-1-A cells [7] = test: Measurement of intracellular reactive oxygen species (CM-H2DCFDA); conditions: OBP-801 and LY294002 plus NAC
Description: (§5) Cells were pretreated for 48 h with or without addition of OBP-801 and/or with addition of LY294002, and were thereafter treated with 10 μM 5-(and-6)-chloromethyl-2′,7′-dichlorodihydrofluorescein diacetate, acetyl ester (CM-H2DCFDA) (Invitrogen, Carlsbad, Calif., USA). After 30 minutes of incubation with 10 μM CM-H2DCFDA, cells were collected by trypsinization, were washed with PBS, and were analyzed by flow cytometry using FACSCalibur™ and CellQuest™ software (Becton-Dickinson).

786-O cells [8] = test: as above; conditions: OBP-801 and LY294002 plus NAC
Description: as §5

survivin and XIAP = test: Western blot analysis of survivin and XIAP in 786-O cells; conditions: OBP-801 and LY294002 plus NAC
Description: as §2

acetylated histone H4 = test: Western blot analysis of acetylated histone H4 in HEC-1-A cells
Description: as §2

## Cn1c(=O)n(-c2ccc(C(C)(C)C#N)cc2)c2c3cc(-c4cnc5ccccc5c4)ccc3ncc21 [BEZ235]
786-O cells [1]
  effect of combined use with OBP-801 (summary statement): synergistic tumor therapeutic/prophylactic effect

## Nc1cc(C(F)(F)F)c(-c2cc(N3CCOCC3)nc(N3CCOCC3)n2)cn1 [BKM120]
786-O cells [1]
  effect of combined use with OBP-801 (summary statement): synergistic tumor therapeutic/prophylactic effect

## Cc1nc(NC(=O)N2CCC[C@H]2C(N)=O)sc1-c1ccnc(C(C)(C)C(F)(F)F)c1 [BYL719]
786-O cells [1]
  effect of combined use with OBP-801 (summary statement): synergistic tumor therapeutic/prophylactic effect

## CS(=O)(=O)N1CCc2c(-c3cnc(N)nc3)nc(N3CCOCC3)nc21 [CH5132799]
786-O cells [1]
  effect of combined use with OBP-801 (summary statement): synergistic tumor therapeutic/prophylactic effect

## CS(=O)(=O)N1CCN(Cc2cc3nc(-c4cccc5[nH]ncc45)nc(N4CCOCC4)c3s2)CC1 [GDC-0941]
786-O cells [1]
  effect of combined use with OBP-801 (summary statement): synergistic tumor therapeutic/prophylactic effect

## O=c1cc(N2CCOCC2)oc2c(-c3ccccc3)cccc12 [LY294002, 2-(4-morpholinyl)-8-phenyl-4H-1-benzopyran-4-one]
786-O cells [1]; 786-O cells
  induction of apoptosis (sub-G1), treatment alone: only slight induction of apoptosis
HEC-1-A cells [2]; LY294002 alone, even at a concentration as high as 12.5 μM
  number of colonies formed: no reduction in the number of colonies formed was observed
[3]
  cleavage of caspase-3, caspase-8 and caspase-9: did not induce cleavage of the foregoing caspases
HEC-1-A cells [4]
  effect on tumor cell cycle progression: G1-phase arrest
Phosphorylated Akt
  concentrations causing decrease in phosphorylated Akt: ≥ 6.3 µM
HEC-1-A cells [5]; LY294002 alone
  concentrations causing inhibition of cell growth: ≥ 6.3 µM
ACHN cells
  growth of ACHN cells: suppressed growth of 786-O cells or ACHN cells in concentration-dependent fashion
786-O cells [6]
  growth of 786-O cells: suppressed growth of 786-O cells or ACHN cells in concentration-dependent fashion
Ishikawa cells
  growth of Ishikawa cells: suppressed growth of Ishikawa cells in concentration-dependent fashion

## CC(=O)N[C@@H](CS)C(=O)O [NAC, N-acetyl-L-cysteine]
caspases, Bim
  effect on caspase activation and Bim induction due to combined treatment: inhibited the caspase activation and Bim induction
786-O cells [1]; 786-O cells, OBP-801 and LY294002 plus NAC
  effect on induction of apoptosis due to combined treatment: blocked the induction of apoptosis
HEC-1-A cells [4]; HEC-1-A cells, OBP-801 and LY294002 plus NAC
  effect on induction of apoptosis resulting from combined treatment: almost completely suppressed
HEC-1-A cells [7]
  effect on increase of intracellular reactive oxygen species caused by combined treatment: blocked
786-O cells [8]
  effect on induction of intracellular reactive oxygen species due to combined treatment: blocked the induction of intracellular reactive oxygen species
Survivin and XIAP
  effect on downregulation of survivin and XIAP by combined treatment: restored

## COC(=O)C[C@H](NC(=O)[C@H](C)NC(=O)[C@@H](NC(=O)OCc1ccccc1)C(C)C)C(=O)CF [zVAD-fmk] (Cbz-Val-Ala-Asp(OMe)-CH2F)
786-O cells [1]; 786-O cells, pan-caspase inhibitor added
  effect on apoptosis induced by combined treatment with OBP-801 and LY294002: effectively suppressed the apoptosis
HEC-1-A cells [4]; HEC-1-A cells, pan-caspase inhibitor added
  effect on apoptosis induced by combined use of OBP-801 and PI3K inhibitor: almost completely suppressed

## spiruchostatin A [OBP-801]
786-O cells [1]; 786-O cells
  induction of apoptosis (sub-G1), treatment alone: only slight induction of apoptosis
HEC-1-A cells [2]; OBP-801 alone at 4 nM, 48 hours treatment, 10 days culture
  number of colonies formed: 60%
[3]
  cleavage of caspase-3, caspase-8 and caspase-9: did not induce cleavage of the foregoing caspases
HEC-1-A cells [4]
  effect on tumor cell cycle progression: G2/M-phase arrest
Acetylated histone H4
  concentrations causing increase of acetylated histone H4: ≥ 1.6 nM
HEC-1-A cells [5]; OBP-801 alone
  concentrations causing inhibition of cell growth: ≥ 0.0031 µM
ACHN cells
  growth of ACHN cells: suppressed growth of 786-O cells or ACHN cells in concentration-dependent fashion
786-O cells [6]
  growth of 786-O cells: suppressed growth of 786-O cells or ACHN cells in concentration-dependent fashion
Ishikawa cells
  growth of Ishikawa cells: suppressed growth of Ishikawa cells in concentration-dependent fashion
